Source: patent publication US5585382A, “Polycyclic and heterocyclic chromophores for bis-imide tumoricidals” (The DuPont Merck Pharmaceutical Company, priority 1995, dated 1996)
Values after ≈ are worked out from the molar mass of the structure shown. Read-outs that look alike come from different tables or passages of the source. Values belong to the compound of their own block, whether it stands above or below them.

Columns and labels:
[1] = tested on: Murine leukemia L1210 cells; test: In vitro growth inhibition of L1210 cells (MTT, 72 hr); type: cell-based; settings: Mus musculus, read-out: L1210 IC50
Method: (§1) The reagents for tissue culture were purchased from GIBCO (Grand Island, N.Y.). 5-Dimethylthiazol-2-yl)-2,5-diphenyl tetrazolium bromide (MTT) was purchased from Sigma Chemical Company (St. Louis, Mo.). All agents were prepared as 2 mg/ml stock solutions in DMSO. MTT was prepared as a 1 mg/ml stock solution in Dulbecco's phosphate buffered saline (PBS). All stocks were stored frozen in the dark at -20° C.
(§2) Clone A human colon cancer cells were isolated from the heterogeneous DLD-1 colon tumor line and maintained as previously described (Dexter, D. L.; Barbosa, J. A.; Calabresi, P. Cancer Research 1979, 39, 1020; Dexter, D. L.; Spremulli, E. M.; Fligiel, A.; Barbosa, J. A.; Vogel, R.; Van Vorhees, A.; Calabresi, P. Am. J. Med. 1981, 71, 949.). Murine leukemia L1210 cells were maintained in RPMI-L medium as described (Chen, S.-F.; Ruben, R. L.; Dexter, D. L. Cancer Research 1986, 46, 5014.). All cell lines were incubated at 37° C. in a humidified atmosphere of 5% CO2 -95% air.
(§3) Exponentially growing L1210 cells (1×10^3), or Clone A cells (8×10^2) in 0.1 ml medium were seeded in a 96-well microtiter plate on day 0. On day one, 0.1 ml aliquots of medium containing graded concentrations of test compounds were added to the cell plates. After incubation at 37° C. in a humidified incubator for 72 hr, the plates containing L1210 cells were centrifuged briefly and 100 μl of the growth medium was removed. Cell cultures were incubated with 50 μl of MTT for 4 h at 37° C. (12). The resulting purple formazan precipitate was solubilized with 200 μl of 0.04 N HCl in isopropyl alcohol. Absorbance was read in a Titertek Multiskan MCC scanning well spectrophotometer (Flow Laboratories) at a test wavelength of 570 nm and a reference wavelength of 630 nm. The absorbances were stored on a floppy disk on an IBM-XT and uploaded onto a VAX computer. IC50 values were determined by a computer program that fit the data to the following equation:
(§4) Y=((Am -Ao)/(1+(X/IC50)^n))+Ao
(§5) where Am =absorbance of the control cells; Ao =absorbance of the cells in the presence of highest compound concentration; Y=observed absorbance; X=compound concentration; IC50 =dose of compound that inhibits the number of population doublings of cells to one half that of the number of population doublings of the control cells; and n equals the slope of the straight portion of the curve.
(§6) The values reported in the table are from at least one experiment performed in eight replicates. If more than one experiment was performed, the number reported is the average of all the trials

[2] = tested on: Clone A human colon cancer cells; test: In vitro growth inhibition of Clone A cells (MTT, 72 hr); type: cell-based; settings: read-out: Clone A IC50
Method: as §1, §2, §3, §4, §5, §6

SMILES: CS(=O)(=O)O.CS(=O)(=O)O.CS(=O)(=O)O.Nc1cc2c3c(cc4cccnc4c3c1)C(=O)N(CCCCNCCCN1C(=O)c3cc(N)cc4c3c(cc3cccnc34)C1=O)C2=O [Example 9, 4-[3-(3-Amino-5-azaphenanthrene-1,10-dicarboximido)propylamino]-1-(3-amino-5-azaphenanthrene-1, 10-dicarboximido)butane Trihydromethanesulfonate]
IC50 ([1]; L1210 cells, 72 hr, MTT): 0.182 µg/mL
IC50 ([2]; Clone A cells, 72 hr, MTT): 0.166 µg/mL
solubility (Solubility in water): 11000 µg/mL

SMILES: CS(=O)(=O)O.Cc1cnc2c(c1)cc1c3c(cc([N+](=O)[O-])cc32)C(=O)N(CCCCNCCCN2C(=O)c3cc([N+](=O)[O-])cc4c3c(cc3cc(C)cnc34)C2=O)C1=O [Example 12, 4-[3-(3-Nitro-7-methyl-5-azaphenanthrene-1, 10-dicarboximido)propylamino]-1-(3-nitro-7-methyl-5-azaphenanthrene-1, 10-dicarboximido)butane Hydromethanesulfonate]
IC50 ([1]; L1210, 72 h): 0.027 µg/mL
IC50 ([2]; 72 h): 0.009 µg/mL
solubility (Solubility in water): 50 µg/mL

SMILES: CS(=O)(=O)O.CS(=O)(=O)O.CS(=O)(=O)O.O=C1c2cccc3c2c(cc2ccncc23)C(=O)N1CCCCNCCCN1C(=O)c2cccc3c2c(cc2ccncc23)C1=O [Example 14, 4-[3-(6-Azaphenanthrene-1,10-dicarboximido)propylamino]-1-(6-azaphenanthrene-1,10-dicarboximido) butane Trihydromethanesulfonate]
IC50 ([1]; L1210 cells, 72 hr, MTT): 0.008 µg/mL
IC50 ([2]; Clone A cells, 72 hr, MTT): 0.003 µg/mL
solubility (Solubility in water): 900 µg/mL

IC50 ([1]; L1210 cells, 72 hr, MTT): 0.002 µg/mL (≈ 0.00329 µM)
IC50 ([2]; Clone A cells, 72 hr, MTT): 0.002 µg/mL (≈ 0.00329 µM)
solubility (Solubility in water): 810 µg/mL (≈ 1330 µM)
SMILES: O=C1c2cccc3c2c(cc2cnccc23)C(=O)N1CCCCNCCCN1C(=O)c2cccc3c2c(cc2cnccc23)C1=O [Example 15, 4-[3-(7-Azaphenanthrene-1,10-dicarboximido)propylamino]-1-(7-azaphenanthrene-1,10dicarboximido) butane 2.5-Hydromethanesulfonate]

SMILES: C[C@H](CNC[C@@H](C)N1C(=O)c2cc([N+](=O)[O-])cc3c2c(cc2cccnc23)C1=O)NC[C@@H](C)N1C(=O)c2cc([N+](=O)[O-])cc3c2c(cc2cccnc23)C1=O [Example 21]
IC50 ([1]; L1210 cells, 72 hr, MTT): 0.042 µg/mL (≈ 0.0567 µM)
IC50 ([2]; Clone A cells, 72 hr, MTT): 0.005 µg/mL (≈ 0.00675 µM)
solubility (Solubility in water): 7700 µg/mL (≈ 10400 µM)

SMILES: CC[C@H](CNCCNC[C@@H](CC)N1C(=O)c2cc([N+](=O)[O-])cc3c2c(cc2cc(C)cnc23)C1=O)N1C(=O)c2cc([N+](=O)[O-])cc3c2c(cc2cc(C)cnc23)C1=O [Example 24]
IC50 ([1]; L1210 cells, 72 hr, MTT): 0.13 µg/mL (≈ 0.166 µM)
IC50 ([2]; Clone A cells, 72 hr, MTT): 0.022 µg/mL (≈ 0.0281 µM)
solubility (Solubility in water): 150 µg/mL (≈ 192 µM)

SMILES: CS(=O)(=O)O.O=C1c2cccc3c2c(cc2ccccc23)C(=O)N1CCCCNCCCN1C(=O)c2cccc3c2c(cc2ccccc23)C1=O [Example 40, 4-[3-(Phenanthrene-1, 10-dicarboximido)propylamino]-1-(phenanthrene-1, 10-dicarboximido) butane Hydromethanesulfonate]
IC50 ([1]; L1210, 72 h): 0.098 µg/mL
IC50 ([2]; 72 h): 0.412 µg/mL
solubility (Solubility in water): 60 µg/mL

SMILES: CS(=O)(=O)O.Cc1cccc2c1cc1c3c(cccc32)C(=O)N(CCCCNCCCN2C(=O)c3cccc4c3c(cc3c(C)cccc34)C2=O)C1=O [Example 42, 4-[3-(8-Methylphenanthrene-1,10-dicarboximido)propylamino]-1-(8-methylphenanthrene-1, 10-dicarboximido)butane Hydromethanesulfonate]
IC50 ([1]; L1210, 72 h): 0.137 µg/mL
IC50 ([2]; 72 h): 0.271 µg/mL
solubility (Solubility in water): 60 µg/mL

SMILES: CS(=O)(=O)O.Cc1c2c3c(cccc3c3ccccc13)C(=O)N(CCCCNCCCN1C(=O)c3cccc4c3c(c(C)c3ccccc34)C1=O)C2=O [Example 43, 4-[3-(9-Methylphenanthrene-1,10-dicarboximido)propylamino]-1-(9-methylphenanthrene-1, 10-dicarboximido)butane Hydromethanesulfonate]
IC50 ([1]; L1210, 72 h): 0.357 µg/mL
IC50 ([2]; 72 h): 0.4 µg/mL
solubility (Solubility in water): 40 µg/mL

SMILES: CS(=O)(=O)O.O=C1c2cccc3c2c(cc2ccc(C(F)(F)F)cc23)C(=O)N1CCCCNCCCN1C(=O)c2cccc3c2c(cc2ccc(C(F)(F)F)cc23)C1=O [Example 44, 4-(3-[6-(Trifluoromethyl)phenanthrene-1,10-dicarboximido]propylamino)-1-[6-(trifluoromethyl)phenanthrene-1, 10dicarboximido]butane Hydromethanesulfonate]
IC50 ([1]; L1210, 72 h): 0.888 µg/mL
IC50 ([2]; 72 h): 1.01 µg/mL
solubility (Solubility in water): 270 µg/mL

SMILES: CS(=O)(=O)O.Cc1ccc2c(C)c3c4c(cccc4c2c1)C(=O)N(CCCCNCCCN1C(=O)c2cccc4c2c(c(C)c2ccc(C)cc24)C1=O)C3=O [Example 46, 4-[3-(6,9-Dimethylphenanthrene-1,10-dicarboximido)propylamino]-1-(6,9-dimethylphenanthrene-1, 10-dicarboximido)butane Hydromethanesulfonate]
IC50 ([1]; L1210, 72 h): 0.414 µg/mL
IC50 ([2]; 72 h): 0.958 µg/mL
solubility (Solubility in water): 40 µg/mL

SMILES: CCc1ccc2cc3c4c(cccc4c2c1)C(=O)N(CCCCNCCCN1C(=O)c2cccc4c2c(cc2ccc(CC)cc24)C1=O)C3=O.CS(=O)(=O)O [Example 47, 4-[3-(6-Ethylphenanthrene-1, 10-dicarboximido)propylamino]-1-(6-ethylphenanthrene-1, 10-dicarboximido)butane Hydromethanesulfonate]
IC50 ([1]; L1210, 72 h): 0.378 µg/mL
IC50 ([2]; 72 h): 0.763 µg/mL
solubility (Solubility in water): 150 µg/mL

SMILES: CS(=O)(=O)O.O=C1c2cccc3c2c(cc2ccc(F)cc23)C(=O)N1CCCCNCCCN1C(=O)c2cccc3c2c(cc2ccc(F)cc23)C1=O [Example 56, 4-[3-(6-Fluorophenanthrene-1,10-dicarboximido)propylamino]-1-(6-fluorophenanthrene-1,10-dicarboximido)butane Hydromethanesulfonate]
IC50 ([1]; L1210, 72 h): 0.365 µg/mL
IC50 ([2]; 72 h): 0.222 µg/mL
solubility (Solubility in water): 40 µg/mL

SMILES: CS(=O)(=O)O.O=C1c2cccc3c2c(cc2ccoc23)C(=O)N1CCCCNCCCN1C(=O)c2cccc3c2c(cc2ccoc23)C1=O [Example 80, 4-[3-(Naphtho[1,2-b]furan-5,6-dicarboximido)propylamino]-1-(naphtho[1,2-b]furan-5,6-dicarboximido)butane Hydromethanesulfonate]
IC50 ([1]; L1210 cells, 72 hr, MTT): 0.389 µg/mL
IC50 ([2]; Clone A cells, 72 hr, MTT): 0.635 µg/mL
solubility (Solubility in water): 420 µg/mL

SMILES: CS(=O)(=O)O.CS(=O)(=O)O.C[C@H](CNCCNC[C@@H](C)N1C(=O)c2cc([N+](=O)[O-])cc3c2c(cc2ncccc23)C1=O)N1C(=O)c2cccc3cc([N+](=O)[O-])cc(c23)C1=O [Example 116, (R,R)-1-[2-(3-Nitro-8-azaphenanthrene-1,10-dicarboximido)propylamino]-2-[2-(3-nitronaphthalene-1,8-dicarboximido)propylamino]ethane Dihydromethanesulfonate]
IC50 ([1]; L1210, 72 h): 0.012 µg/mL
IC50 ([2]; 72 h): 0.003 µg/mL

SMILES: C[C@H](CNCCNC[C@@H](C)N1C(=O)c2cc([N+](=O)[O-])cc3c2c(cc2ccncc23)C1=O)N1C(=O)c2cccc3cc([N+](=O)[O-])cc(c23)C1=O [Example 119, (R,R)-1-[3-Nitro-6-azaphenanthrene-1, 10-dicarboximido)propylamino]-2-[2-(3-nitronaphthalene-1,8-dicarboximido)propylamino]ethane Dihydromethanesulfonate]
IC50 ([1]; L1210, 72 h): 0.044 µg/mL
IC50 ([2]; 72 h): 0.003 µg/mL

SMILES: C[C@H](CNCCNC[C@@H](C)N1C(=O)c2cccc3c2c(cc2ccc(F)cc23)C1=O)N1C(=O)c2cccc3cc([N+](=O)[O-])cc(c23)C1=O [Example 120]
IC50 ([1]; L1210, 72 h): 0.261 µg/mL (≈ 0.403 µM)
IC50 ([2]; 72 h): 0.013 µg/mL (≈ 0.0201 µM)

SMILES: C[C@H](CNCCNC[C@@H](C)N1C(=O)c2cccc3c2c(cc2ccc(C(F)(F)F)cc23)C1=O)N1C(=O)c2cccc3cc([N+](=O)[O-])cc(c23)C1=O [Example 121]
IC50 ([1]; L1210, 72 h): 0.397 µg/mL (≈ 0.569 µM)
IC50 ([2]; 72 h): 0.032 µg/mL (≈ 0.0459 µM)

SMILES: COc1ccc2cc3c4c(cccc4c2c1)C(=O)N([C@H](C)CNCCNC[C@@H](C)N1C(=O)c2cccc4cc([N+](=O)[O-])cc(c24)C1=O)C3=O [Example 122]
IC50 ([1]; L1210, 72 h): 0.211 µg/mL (≈ 0.32 µM)
IC50 ([2]; 72 h): 0.023 µg/mL (≈ 0.0349 µM)

SMILES: C[C@H](CNCCNC[C@@H](C)N1C(=O)c2cc([N+](=O)[O-])cc3c2c(cc2cccnc23)C1=O)N1C(=O)c2cccc3cc([N+](=O)[O-])cc(c23)C1=O [Example 123]
IC50 ([1]; L1210 cells, 72 hr, MTT): 0.013 µg/mL (≈ 0.0192 µM)
solubility (Solubility in water): 5770 µg/mL (≈ 8540 µM)

IC50 ([1]; L1210 cells, 72 hr, MTT): 0.011 µg/mL (≈ 0.0183 µM)
solubility (Solubility in water): 290 µg/mL (≈ 482 µM)
SMILES: O=C1c2cccc3cc([N+](=O)[O-])cc(c23)C(=O)N1CCCCNCCCN1C(=O)c2cccc3c2c(cc2cccnc23)C1=O [Example 124]
